The source of these data is patent publication US11939403B2, “Peptide-peptoid scaffolds” (The Regents of the University of California, priority 2020, dated 2024).

Broadly, the share remaining is the share of the starting amount still present when the sample was taken. High values mean greater stability, low ones a greater loss. As a reminder, the logD is the decadic logarithm of the distribution of all forms, ionised or not, between an organic phase and buffer at a given pH. The low end stands for lower lipophilicity, the high end for higher lipophilicity. The fraction unbound is the share of the substance not bound to proteins or other matrix. For orientation: efflux ratio means the permeability from basolateral to apical divided by that in the opposite direction, in the common usage.

The nature of series [1]: Serum protein binding. The note with it: bound fractions in rat plasma; for fraction unbound: rat, plasma. The class given is in vitro ADME.
Series [2] is described as follows: Microsomal stability. It counts as in vitro ADME. The note with it: remaining rate after 30 min of incubation with pooled liver microsomes (0.1 mg/mL, rats); for remaining at 0.5 h: rat. (In general: Microsomes from liver hold many membrane-bound enzymes, among them those of drug oxidation.)
Series [3] is described as follows: Aqueous solubility, Japanese Pharmacopoeia Second Fluid (pH 6.8). The class given is physicochemical. Conditions: for Aq. Sol.: Japanese Pharmacopoeia Second Fluid (pH 6.8); for solubility: Japanese Pharmacopoeia Second Fluid.
Protocol: (§1) For each of these six pure compounds, calculated (atomistic) octanol/water partition coefficient (A Log P), aqueous solubility (Aq. Sol), PAMPA and MDCK permeabilities, experimental octanol/water partition coefficient (Log D (oct/w)), P-gp efflux ratios, microsomal stability, and serum protein binding were determined (Table 1 and FIG. 5).
Series [4] is described as follows: Oral bioavailability in mice. It counts as in vivo. Conditions: for bioavailability / BA: mouse; for bioavailability: po. The source says: Based on their permeabilities in PAMPA and MDCK cells, the in vivo pharmacokinetics of 5 of these 6 pure compound library members were investigated (B03 was not included in the oral PK study, because of its low (small) PAMPA and MDCK permeabilities). […] To test whether metabolism and efflux were the main factors contributing to the low oral bioavailability (BA), mice were pretreated with either the CYP inhibitor […] (ABT), the P-gp inhibitor elacridar (GF120918), or a combination of both the CYP and P-gp inhibitors. […] Combining the inhibitors also produced oral bioavailabilities that reflected the compounds' relative PAMPA permeabilities.

Series [5] is described as follows: in vitro. The note with it: dog, MDCK, MDCK Perm.
Protocol: (§2) Permeabilities were also measured in a Madin-Darby canine kidney (MDCK) permeability assay, in which the passage of the compound through a semipermeable membrane coated with MDCK cells is measured.
A short description of series [6]: Experimental octanol/water partition coefficient Log D (oct/w). The note with it: for logD: octanol/water, pH 7.4, LogD (oct/w).
Protocol: as §1
Series [7] concerns MDCK cells. The note with it: dog.
Protocol: as §2
The nature of series [8]: PAMPA permeability of pure compounds under sink conditions. It counts as in vitro ADME. Conditions: detergents in donor and acceptor wells (sink conditions); for Papp: PAMPA, read-out: PAMPA Perm. How it is done: PAMPA permeability studies on these six pure compounds were performed initially under the same conditions as those used in the original library screen, using a concentration of 1 μM in the donor well based on the estimated concentration of each compound in the original library. […] Without being bound by theory, it was hypothesized that the pure compounds were precipitating in the donor well or adhering to the walls of the apparatus, and that as mixtures they could act as pseudo-detergents (or mutual blocking agents) to help prevent escape from solution (such as through aggregation or adsorption). Therefore, the PAMPA permeabilities of the pure compounds using detergents in the donor and acceptor wells as “sink” conditions were re-investigated. Using these conditions, the permeability trends were similar to those observed in the Libraries. […] The PAMPA permeabilities of the scaffold A compounds were high (large) across the entire A Log P range, whereas the permeabilities of scaffold B compounds trended upward (greater) along with A Log P.
In general terms: PAMPA measures passive passage across an artificial lipid membrane.

Series [9] has as its target T1, P-gp (Homo sapiens, UniProt P08183). The note with it: MDCK, 10 μM.
A short description of series [10]: physchem. The note with it: pH 7.4, LogD (oct/w).
Protocol: as §1
Series [11] concerns the target T1, P-gp. Kind of series: in vitro. Conditions: MDCK, P-gp R-value.
A short description of series [12]: PAMPA permeability under standard (library screen) conditions. It counts as in vitro ADME. Conditions: pure compounds, donor well concentration 20 μM. The source says: Libraries A and B were synthesized separately as mixtures using solid phase split-pool peptide synthesis, incorporating peptoid side chains as primary amines using the submonomer method. (Zuckermann R N et al. Efficient Method for the Preparation of Peptoids [Oligo(N-Substituted Glycines)] by Submonomer Solid-Phase Synthesis. J Am Chem Soc. (1992) 114, 10646-7. doi: DOI 10.1021/ja00052a076. PubMed PMID: WOS:A1992KD71700076.) The libraries were cleaved, cyclized in solution, and roughly purified using solid phase extraction on C18 media. Parallel artificial membrane permeability assays (PAMPA) were used to measure passive permeabilities; PAMPA permeabilities within each library varied parabolically as a function of A Log P (FIG. 2A).
PAMPA permeability studies on these six pure compounds were performed initially under the same conditions as those used in the original library screen, […] of each compound in the original library. […] Without being bound by theory, it was hypothesized that the pure compounds were precipitating in the donor well or adhering to the walls of the apparatus, and that as mixtures they could act as pseudo-detergents (or mutual blocking agents) to help prevent escape from solution (such as through aggregation or adsorption). […]

Where [13] appears, read: pH 6.8, Japanese Pharmacopoeia Second Fluid (pH 6.8), read-out: Aq. Sol.
Setting [14] is: pH 6.8, pure compounds, values in text, read-out: Aqueous solubility.
[15] abbreviates: in vivo, mice, oral, no inhibitors, read-out: Oral bioavailability, no inhib.
The mark [16] stands for this setting: in vivo, mice, oral, pretreatment with 1-aminobenztriazole (CYP inhibitor), read-out: Oral bioavailability, +CYP inhib.
[17] abbreviates: in vivo, mice, oral, pretreatment with 1-aminobenztriazole and GF120918, read-out: Oral bioavailability, +CYP inhib. +P-gp inhib.
The mark [18] stands for this setting: not told, mice, oral, pretreatment with GF120918 (P-gp inhibitor), read-out: Oral bioavailability, +P-gp inhib.
Where [19] appears, read: mice, oral, pretreatment with 1-aminobenztriazole and GF120918.

Values after ≈ are worked out from the molar mass of the structure shown. Values joined by “and” are separate entries in the source; they are usually repeats but may differ in a detail not shown here. Equal values may be shown once. Read-outs that look alike come from different tables or passages of the source. Marks after values point to notes of the source that are not given here. Square brackets hold non-standard residues; d marks the D form. Peptide text beside a SMILES is read from it. Gly(N-CH2-oxan-4-yl) = O=C(O)CNCC1CCOCC1; NCyclohexylmethylGly = O=C(O)CNCC1CCCCC1; NMeL = CN[C@@H](CC(C)C)C(=O)O; NMeA = CN[C@@H](C)C(=O)O; NEtG = CCNCC(=O)O

T1 sequence (P08183 whole entry): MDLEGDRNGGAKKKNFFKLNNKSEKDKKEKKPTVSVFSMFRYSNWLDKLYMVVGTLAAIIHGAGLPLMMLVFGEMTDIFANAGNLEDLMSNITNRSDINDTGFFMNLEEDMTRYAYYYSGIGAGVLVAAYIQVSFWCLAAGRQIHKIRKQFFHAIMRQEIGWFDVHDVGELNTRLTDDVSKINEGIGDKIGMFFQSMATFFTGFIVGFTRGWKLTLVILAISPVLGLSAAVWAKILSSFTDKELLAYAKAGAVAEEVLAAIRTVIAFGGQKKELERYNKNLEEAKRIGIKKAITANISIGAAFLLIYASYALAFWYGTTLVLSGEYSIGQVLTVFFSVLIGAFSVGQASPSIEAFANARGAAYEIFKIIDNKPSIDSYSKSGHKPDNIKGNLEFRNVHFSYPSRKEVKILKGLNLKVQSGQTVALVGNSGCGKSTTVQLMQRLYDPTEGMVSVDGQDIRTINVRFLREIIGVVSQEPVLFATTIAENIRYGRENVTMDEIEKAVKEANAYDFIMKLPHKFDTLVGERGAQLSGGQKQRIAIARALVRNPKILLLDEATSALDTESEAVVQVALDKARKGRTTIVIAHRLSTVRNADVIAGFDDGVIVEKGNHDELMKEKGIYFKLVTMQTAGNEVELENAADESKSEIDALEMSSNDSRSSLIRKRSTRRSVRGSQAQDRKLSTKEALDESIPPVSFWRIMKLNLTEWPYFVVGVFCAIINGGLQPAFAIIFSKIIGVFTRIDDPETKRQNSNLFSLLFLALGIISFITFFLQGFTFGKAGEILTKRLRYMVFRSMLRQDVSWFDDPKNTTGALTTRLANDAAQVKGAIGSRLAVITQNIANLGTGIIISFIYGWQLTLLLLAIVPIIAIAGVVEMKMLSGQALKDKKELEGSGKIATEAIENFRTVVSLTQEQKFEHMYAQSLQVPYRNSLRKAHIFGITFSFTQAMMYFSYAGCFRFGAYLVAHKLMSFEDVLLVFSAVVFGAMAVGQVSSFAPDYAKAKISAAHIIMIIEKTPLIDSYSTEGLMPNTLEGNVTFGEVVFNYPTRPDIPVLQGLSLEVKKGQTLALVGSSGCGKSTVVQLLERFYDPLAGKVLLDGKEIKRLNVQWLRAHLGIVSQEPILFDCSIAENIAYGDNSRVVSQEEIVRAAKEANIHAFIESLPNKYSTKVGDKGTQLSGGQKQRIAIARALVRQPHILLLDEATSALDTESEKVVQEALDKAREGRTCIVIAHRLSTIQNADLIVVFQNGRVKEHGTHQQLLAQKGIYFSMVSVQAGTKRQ

`CCN1CC(=O)N[C@@H](CC(C)C)C(=O)N(C)[C@@H](C)C(=O)N[C@@H](CC(C)C)C(=O)N2CCC[C@@H]2C(=O)N(CC2CCCCC2)CC(=O)N[C@@H](CC(C)C)C(=O)N(C)[C@@H](C)C(=O)N[C@@H](Cc2ccccc2)C(=O)N2CCC[C@@H]2C1=O` [Compound A08] (cyclo(F[dP][NEtG]L[NMeA]L[dP][NCyclohexylmethylGly]L[NMeA])): the “Serum Protein Binding” value in series [1] is 99% and >99.8%. The same molecule returned a share remaining at 0.5 h in series [2] of 33%. Further, the “Microsomal Stability” value in series [2] was found to be 33%. Also, the “Aq. Sol.” value in [3] came out at 0.070 mg/mL. Besides, the solubility in [3] (setting [13]) was 6.8 µg/mL (≈ 6.24 µM); in [3] (setting [14]), 70 µg/mL (≈ 64.3 µM). In addition, the bioavailability in series [4] (setting [15]) is 5%; in [4] (setting [16]), 31%; in series [4] (setting [17]), 59%; in series [4] (setting [18]) it was 7%. The Papp is 25 ×10⁻⁶ cm/s in [5] and 18 ×10⁻⁶ cm/s in series [8]. Also, in series [6], the pH-dependent lipophilicity (logD) came to 4.1. Besides, the “MDCK Perm.” value in series [7] came out at 24.7 ×10⁻⁶ cm/s. Further, the “PAMPA Perm.” value in [8] came out at 18.8 ×10⁻⁶ cm/s.

Take `CCN1CC(=O)N[C@@H](CC(C)C)C(=O)N2CCC[C@@H]2C(=O)N(C)[C@@H](CC(C)C)C(=O)N[C@@H](C)C(=O)N(CC2CCOCC2)CC(=O)N[C@@H](Cc2ccccc2)C(=O)N2CCC[C@@H]2C(=O)N(C)[C@@H](CC(C)C)C(=O)N[C@@H](C)C1=O` [Compound B09] (cyclo(A[NEtG]L[dP][NMeL]A[Gly(N-CH2-oxan-4-yl)]F[dP][NMeL])): in [2], the share remaining at 0.5 h amounted to 90% and the “Microsomal Stability” value stood at 90%. Moreover, the “Aq. Sol.” value in series [3] is on record as 2.200 mg/mL. Also, the solubility in [3] (setting [14]) was determined as 2200 µg/mL (≈ 2020 µM). Besides, the “Oral bioavailability, +CYP inhib. +P-gp inhib.” value in series [4] (setting [19]) is listed as 14%. The “Oral bioavailability, +P-gp inhib.” value in series [4] (mice, oral, pretreatment with GF120918 (P-gp inhibitor)) stood at 3%. In series [4] (setting [15]), the bioavailability was 0.7%. Also, the bioavailability in [4] (setting [16]) amounted to 1.5%. In addition, the “P-gp R-value” in [9] came to 10. In series [7], the “MDCK Perm.” value is 0.4 ×10⁻⁶ cm/s. In [8], the Papp turned out to be 0.7 ×10⁻⁶ cm/s and the “PAMPA Perm.” value came to 1.4 ×10⁻⁶ cm/s. The molecule further had a logD in series [10] of 3.6.

In the case of `CCN1CC(=O)N[C@@H](CC(C)C)C(=O)N(C)[C@@H](C)C(=O)N[C@@H](CC(C)C)C(=O)N2CCC[C@@H]2C(=O)N(CC2CCOCC2)CC(=O)N[C@@H](CC(C)C)C(=O)N(C)[C@@H](C)C(=O)N[C@@H](C)C(=O)N2CCC[C@@H]2C1=O` [Compound A03] (cyclo([NEtG]L[NMeA]L[dP][Gly(N-CH2-oxan-4-yl)]L[NMeA]A[dP])), the fraction unbound in series [1] is 0.31. This molecule displayed a share remaining at 0.5 h in [2] of 64%. Moreover, in [2], the “Microsomal Stability” value was 64%. For the same molecule, the “Aq. Sol.” value in series [3] is on record as 1.900 mg/mL. The solubility in series [3] (setting [14]) came to 1900 µg/mL (≈ 1870 µM). Further, the bioavailability in [4] (in vivo, 30 mg/kg, oral dose 30 mg/kg, no inhibitors, based on AUC at 1 mg/kg IV dose, read-out: BA) was 11.5%; in series [4] (in vivo, 100 mg/kg, oral dose 100 mg/kg, no inhibitors, based on AUC at 1 mg/kg IV dose, read-out: BA), 22.1%; in series [4] (in vivo, 200 mg/kg, oral dose 200 mg/kg, no inhibitors, based on AUC at 1 mg/kg IV dose, read-out: BA), 49.8%; in series [4] (setting [15]) it was 1%; in series [4] (setting [16]), 2%; in [4] (setting [17]) it was 39%. Besides, the bioavailability in series [4] (setting [18]) was 4%. For the same molecule, the BA was 1% and 0.99% in [4] (oral dose 3 mg/kg, no inhibitors, based on AUC at 1 mg/kg IV dose); 50% in series [4] (oral dose 200 mg/kg, no inhibitors, based on AUC at 1 mg/kg IV dose). Also, the Papp was determined as 0.4 ×10⁻⁶ cm/s in [5] and 18 ×10⁻⁶ cm/s in [8]. The logD in series [6] amounted to 2.9. Further, in series [9], the “P-gp R-value” is on record as 6.4. For the same molecule, in [11], the efflux ratio at 10 μM was 6. In [8], the “PAMPA Perm.” value is 17.2 ×10⁻⁶ cm/s.

As to `CCN1CC(=O)N[C@@H](CC(C)C)C(=O)N2CCC[C@@H]2C(=O)N(C)[C@@H](CC(C)C)C(=O)N[C@@H](C)C(=O)N(CC2CCOCC2)CC(=O)N[C@@H](C)C(=O)N2CCC[C@@H]2C(=O)N(C)[C@@H](CC(C)C)C(=O)N[C@@H](C)C1=O` [Compound B03] (cyclo(A[NEtG]L[dP][NMeL]A[Gly(N-CH2-oxan-4-yl)]A[dP][NMeL])), in series [1], the “Serum Protein Binding” value is on record as 56% and the fraction unbound is 0.43. In series [2], the fraction remaining at 0.5 h is 94% and the “Microsomal Stability” value is given as 94%. Also, in series [3], the “Aq. Sol.” value came to 1.900 mg/mL. The solubility in series [3] (setting [14]) was 1900 µg/mL (≈ 1870 µM). The molecule further came in with a Papp in series [5] of 0.3 ×10⁻⁶ cm/s. The molecule also had a log distribution coefficient (logD) in series [6] of 2.1. Besides, the efflux ratio at 10 μM in [11] worked out at 1.4.

As for `CCN1CC(=O)N[C@@H](CC(C)C)C(=O)N(C)[C@@H](C)C(=O)N[C@@H](CC(C)C)C(=O)N2CCC[C@@H]2C(=O)N(CC2CCOCC2)CC(=O)N[C@@H](CC(C)C)C(=O)N(C)[C@@H](C)C(=O)N[C@@H](Cc2ccccc2)C(=O)N2CCC[C@@H]2C1=O` [Compound A09] (cyclo([NEtG]L[NMeA]L[dP][Gly(N-CH2-oxan-4-yl)]L[NMeA]F[dP])), the “Serum Protein Binding” value in series [1] was determined as 98%. In [1], this molecule yielded a fraction unbound of 0.01. The fraction remaining at 0.5 h in [2] was 67%. Also, the “Microsomal Stability” value in series [2] was determined as 67%. Moreover, in series [3], the “Aq. Sol.” value is 0.600 mg/mL. The solubility is 640 µg/mL (≈ 586 µM) in [3] (setting [13]) and 600 µg/mL (≈ 550 µM) in series [3] (setting [14]). The “Oral bioavailability, +CYP inhib. +P-gp inhib.” value in [4] (setting [19]) is given as 105^c %. The bioavailability in series [4] (setting [15]) is 2%; in series [4] (setting [16]), 5%; in series [4] (setting [17]) it was over 100%; in series [4] (setting [18]) it was 22%. The Papp in series [5] was 3.1 ×10⁻⁶ cm/s; in series [8], 35 ×10⁻⁶ cm/s. Also, the logD in [6] worked out at 4.1. Also, the “LogD (oct/w)” value in series [6] (pH 7.4) was over 4.1. In series [9], the “P-gp R-value” is listed as 46.9. Further, the efflux ratio at 10 μM in series [11] is 43. In series [12], the PAMPA membrane transport result is listed as “some membrane transport was observed”. In addition, the “PAMPA Perm.” value in series [8] worked out at 35.7 ×10⁻⁶ cm/s.
